From patent publication US9289503B2, “Fatty acid fumarate derivatives and their uses” (Catabasis Pharmaceuticals, Inc., priority 2010, dated 2016)
pIC50: −log10 of the molar value. Structures can show the parent of a compound that is named as a salt.

What follows are compounds tested on NF-κB (assay: NF-κB luciferase reporter assay in RAW 264.7 macrophages). Settings: Mus musculus, RAW264.7; RAW 264.7 cells with 3× NFκB response element luciferase reporter; 2 hour pretreatment, 200 ng/ml LPS for 3 hours; read-out: NF-kB inhibitory activity.
Format: cell-based
Description: RAW 264.7 cells stably expressing a 3× NFκB response elemement-drive luciferase reporter were seeded into 96 well plates in sera-free medium (Optimem) 18 hours prior to compound application. Compounds of the invention were prepared by first making […] stock solutions in EtOH. Stock solutions were then diluted 1:100 in low LPS FBS (Gemini BenchMark 100-106), mixed vigorously and allowed to incubate at room temperature for 30 minutes, 1:2 serial dilutions were then made in FBS supplemented with 1% EtOH, mixed vigorously, and again allowed to incubate at room temperature for 30 minutes before adding to RAW 264.7 reporter cells (final concentrations: 10% FBS, 100 uM highest compound dilution, 0.1% EtOH) for a 2 hour pretreatment prior to stimulation with LPS. Cells were then stimulated with 200 ng/ml LPS or vehicle control for 3 hours in the presence of the compounds of the invention. A set of six vehicles was left unstimulated with LPS in order to measure the assay floor. AlamarBlue viability dye (Invitrogen) was added to cells simultaneously with the delivery of LPS (final AlamarBlue concentration of 10%). After the 3 h incubation period with LPS, cell viability was measured by reading fluorescence (excitation 550 nm, emission 595 nm) with a Perkin Elmer Victor V plate reader. Then cell media was aspirated from each well. Luciferase signal was then developed by addition of the Britelite Plus reagent (Perkin Elmer). Luciferase activity was measured with the Perkin Elmer Victor V plate reader. NF-κB activity was expressed as a percent of the vehicle control wells (stimulated with LPS). Compounds were tested at 6 dose point titrations in triplicate to determine IC50 values.
Table 1 summarizes the IC50 values for a number of fatty acid fumarate conjugates in this NF-κB luciferase reporter assay. In this table, MMF=mono methyl fumarate.

SMILES	pIC50
CC/C=C\C/C=C\C/C=C\C/C=C\C/C=C\C/C=C\CCC(=O)NCCSSCCNC(=O)/C=C/C(=O)OC [Compound I-5, (E)-methyl 4-(2-(2-(2-(4Z,7Z,10Z,13Z,16Z,19Z)-docosa-4,7,10,13,16,19-hexaenamidoethyl)disulfanyl)ethylamino)-4-oxobut-2-enoate]	3.70 to 4.30
CC/C=C\C/C=C\C/C=C\C/C=C\C/C=C\C/C=C\CCC(=O)NCCN1C(=O)CC(SC[C@H](NC(=O)/C=C/C(=O)OC)C(=O)OC)C1=O (stereo partly drawn) [Compound I-39, (E)-methyl 4-((R)-3-(1-(2-(4Z,7Z,10Z,13Z,16Z,19Z)-docosa-4,7,10,13,16,19-hexaenamidoethyl)-2,5-dioxopyrrolidin-3-ylthio)-1-methoxy-1-oxopropan-2-ylamino)-4-oxobut-2-enoate]	3.70 to 4.30
CC/C=C\C/C=C\C/C=C\C/C=C\C/C=C\C/C=C\CCC(=O)N1C[C@@H](C)N(C(=O)/C=C/C(=O)OC)[C@@H](C)C1 [Compound I-41, (E)-methyl 4-((2R,6S)-4-((4Z,7Z,10Z,13Z,16Z,19Z)-docosa-4,7,10,13,16,19-hexaenoyl)-2,6-dimethylpiperazin-1-yl)-4-oxobut-2-enoate]	3.70 to 4.30
CC/C=C\C/C=C\C/C=C\C/C=C\C/C=C\C/C=C\CCC(=O)NCCNC(=O)/C=C/C(=O)OCC [Compound I-66, (E)-ethyl 4-(2-(4Z,7Z,10Z,13Z,16Z,19Z)-docosa-4,7,10,13,16,19-hexaenamidoethylamino)-4-oxobut-2-enoate]	3.70 to 4.30
CC/C=C\C/C=C\C/C=C\C/C=C\C/C=C\CCCC(=O)N[C@@H](CCCCNC(=O)/C=C/C(=O)OC)C(=O)O [Compound I-72, (S)-2-((5Z,8Z,11Z,14Z,17Z)-icosa-5,8,11,14,17-pentaenamido)-6-((E)-4-methoxy-4-oxobut-2-enamido)hexanoic acid]	3.70 to 4.30
CC/C=C\C/C=C\C/C=C\C/C=C\C/C=C\C/C=C\CCC(=O)NCCNC(=O)/C=C/C(=O)O [Compound I-102, (E)-4-(2-(4Z,7Z,10Z,13Z,16Z,19Z)-docosa-4,7,10,13,16,19-hexaenamidoethylamino)-4-oxobut-2-enoic acid]	≤ 4.00
CC/C=C\C/C=C\C/C=C\C/C=C\C/C=C\C/C=C\CCC(=O)NCCOC(=O)/C=C/C(=O)OC [Compound I-103, 2-(4Z,7Z,10Z,13Z,16Z,19Z)-docosa-4,7,10,13,16,19-hexaenamidoethyl methyl fumarate]	3.70 to 4.30
CC/C=C\C/C=C\C/C=C\C/C=C\C/C=C\C/C=C\CCC(=O)N(C)CCN(C)C(=O)/C=C/C(=O)OC [Compound I-104, (E)-methyl 4-(methyl(2-((4Z,7Z,10Z,13Z,16Z,19Z)-N-methyldocosa-4,7,10,13,16,19-hexaenamido)ethyl)amino)-4-oxobut-2-enoate]	≤ 4.00
COC(=O)/C=C/C(=O)O [MMF, mono methyl fumarate, reference compound]	≤ 4.00

Same assay, conditions: RAW 264.7 cells with 3× NFκB response element luciferase reporter; 2 hour pretreatment, 200 ng/ml LPS for 3 hours

SMILES	NF-kB inhibitory activity
CC/C=C\C/C=C\C/C=C\C/C=C\C/C=C\CCCC(=O)NCCNC(=O)/C=C/C(=O)OC [Compound I-2, (E)-methyl 4-(2-(5Z,8Z,11Z,14Z,17Z) -eicosa-5,8,11,14,17-pentaenamidoethylamino)-4-oxobut-2-enoate]	+ +
CC/C=C\C/C=C\C/C=C\C/C=C\C/C=C\C/C=C\CCC(=O)NCCOCCNC(=O)/C=C/C(=O)OC [Compound I-3, (E)-methyl 4-(2-(2-(4Z,7Z,10Z,13Z,16Z,19Z)-docosa-4,7,10,13,16,19-hexaenamidoethoxy)ethylamino)-4-oxobut-2-enoate]	+ +
CC/C=C\C/C=C\C/C=C\C/C=C\C/C=C\C/C=C\CCC(=O)NCCN(C)CCNC(=O)/C=C/C(=O)OC [Compound I-4, (E)-methyl 4-(2-((2-(4Z,7Z,10Z,13Z,16Z,19Z)-docosa-4,7,10,13,16,19-hexaenamidoethyl)(methyl)amino)ethylamino)-4-oxobut-2-enoate]	+ +
CC/C=C\C/C=C\C/C=C\C/C=C\C/C=C\C/C=C\CCC(=O)NCCCC[C@H](NC(=O)/C=C/C(=O)OC)C(=O)OC [Compound I-6, (S)-methyl 6-((4Z,7Z,10Z,13Z,16Z,19Z)-docosa-4,7,10,13,16,19-hexaneamido)-2-((E)-4-methoxy-4-oxobut-2-enamido)hexanoate]	+ +
CC/C=C\C/C=C\C/C=C\C/C=C\C/C=C\C/C=C\CCC(=O)NCC(C)(C)NC(=O)/C=C/C(=O)OC [Compound I-22]	+ +
CC/C=C\C/C=C\C/C=C\C/C=C\C/C=C\C/C=C\CCC(=O)N1CCN(C(=O)/C=C/C(=O)OC)CC1 [Compound I-40, (E)-methyl 4-(4-(4Z,7Z,10Z,13Z,16Z,19Z)-docosa-4,7,10,13,16,19-hexaenoylpiperazin-1-yl)-4-oxobut-2-enoate]	+ +
CC/C=C\C/C=C\C/C=C\C/C=C\C/C=C\C/C=C\CCC(=O)NCCNC(=O)/C=C/C(=O)OC [Compound I-67]	+ +

Each compound was assayed on Hmox1 (assay: Hmox1 target gene expression in RAW264.7 macrophages). Settings: RAW264.7; 50 μM and 100 μM; FIG. 4.
Format: cell-based
Description: RAW264.7 macrophages are seeded at a density of 100,000 cells/well in a 96-well plate in DMEM supplemented with 10% FBS and Penn/strep. 16 hours later, medium is aspirated and replaced with 90 μl/well of serum-free DMEM. A fatty acid fumarate conjugate, DHA and EPA are brought up in 100% EtOH to a concentration of 100 mM and then diluted 1:100 In 100% FBS for a 20× stock solution consisting of 1 mM compound and 1% EtOH. The fatty acid fumarate conjugate 20× stock solutions are diluted 1:2 in FBS supplemented with 1% EtOH for a 500 uM 10× stock solution, whereas equal volumes of the DHA and EPA 20× stock solutions are mixed to create a 10× stock solution containing 500 μm each of DHA and EPA. […] The compounds are allowed to pre-incubate for 2 hours before stimulation of 100 ng/ml LPS (10 μl of 1 μg/ml LPS is added to each well). Following 3 hours of LPS stimulation, cells are washed once in 1× PBS, aspirated dry, and flash frozen in liquid nitrogen. RNA is then isolated and converted to cDNA using the Cells to cDNA kit (Ambion) according to the manufacturer's protocol. Transcript levels are then measured using ABI Taqman primer/probe assay kits, normalized to GAPDH using the deltaCt method, and the data expressed relative to vehicle only control.

SMILES	effect on the target gene Hmox1
COC(=O)/C=C/C(=O)NCCNC(=O)CCCC[C@@H]1CCSS1 [Compound I-105, (R,E)-methyl 4-(2-(5-(1,2-dithiolan-3-yl)pentanamido)ethylamino)-4-oxobut-2-enoate]	positive effect

What follows are compounds tested on IL-1β (assay: IL-1β gene expression in LPS-stimulated RAW264.7 macrophages). Settings: RAW264.7; 50 μM and 100 μM; FIG. 4.
Format: cell-based
Description: RAW264.7 macrophages were seeded at a density of 100,000 cells/well in a 96-well plate in DMEM supplemented with 10% FBS and Penn/strep. 16 hours later, medium was aspirated and replaced with 90 μl/well of serum-free DMEM. A fatty acid fumarate conjugate, DHA and monomethyl-fumarate (MMF) were brought up in 100% EtOH to a concentration of 100 mM and then diluted 1:100 in 100% FBS for a stock solution consisting of 1 mM compound and 1% EtOH. these stock solutions were then diluted 1:10 in FBS supplemented with 1% EtOH to generate a 100 μM of a fatty acid fumarate conjugate and 100 μM each of DHA and MMF. 10 μl was then added to the RAW246.7 cells to generate final concentrations 10 μM of the fatty acid fumarate conjugate or 10 μM each DHA and MMF, along with vehicle only control. […] IL-1β and TNF-α transcript levels were then measured using Taqman primer/probe assay sets (Applied Biosystems), normalized to GAPDH using the deltaCt method, and the data expressed relative to vehicle only control. […]
RAW264.7 macrophages are seeded at a density of 100,000 cells/well in a 96-well plate in DMEM supplemented with 10% FBS and Penn/strep. […] Transcript levels are then measured using ABI Taqman primer/probe assay kits, normalized to GAPDH using the deltaCt method, and the data expressed relative to vehicle only control.

SMILES	effect on IL-1β target gene expression
COC(=O)/C=C/C(=O)NCCNC(=O)CCCC[C@@H]1CCSS1 [Compound I-105, (R,E)-methyl 4-(2-(5-(1,2-dithiolan-3-yl)pentanamido)ethylamino)-4-oxobut-2-enoate]	positive effect
